Assay results taken from patent US20220031690A1, “ANTI-NEURODEGENERATIVE DISEASE AGENT” (Hayashibara Co., Ltd., priority 2018, published 2022).

Legend:
[1] = Peroxyl radical scavenging ability (AAPH, ESR); type: biochemical; details: DMPO spin trap, AAPH 37° C.
Description: Since the peroxyl radical generated by heating of 2,2′-azobis (2-aminodipropane) dihydrochloride (hereinafter referred to as “AAPH”) is a model of biologically derived radicals, in this experiment, the ability of the test compound to scavenge the peroxyl radical was measured by ESR.
Specifically, each of the dye compounds dissolved in DMSO was diluted with 0.1 M phosphate buffer to prepare a test compound solution. […] Measurements were performed in triplicate for each of the concentrations of each test compound, and the IC50 was calculated using the mean value thereof and shown in Table 6.
(§1) Detailed conditions of the ESR measurement are described in this section. A reaction solution for measuring various radicals was placed in a flat quartz cell for ESR, and the ESR spectrum was measured by an ESR device (commercialized by JEOL Ltd., trade name “Free radical Controller JES-FR30”). […] The peak height of the ESR spectrum corresponding to each radical at this time was set as 100, and the relative intensity when the solution was added and reacted was obtained and expressed as the radical residual rate (%). […]

[2] = Solubility in distilled water and ethanol (absorbance method); type: physicochemical
Description: A test sample solution, prepared by dissolving each test compound in DMSO to give a concentration of 5 mg/mL, was diluted with 70% (v/v) acetonitrile aqueous solution, and the absorption spectrum at the wavelength range of 400 nm to 900 nm is measured by a spectrophotometer (“FLEX STATION 3”, manufactured by Molecular Devices Japan, Tokyo, Japan). The maximum absorption wavelength of each test compound was determined, then the correlation equation between the absorbance and the concentration at the wavelength was calculated to prepare a calibration curve, and then the following quantitative test was carried out. […] The solubility of each dye compound was measured as follows with reference to the method described in the Japanese Pharmacopoeia. […] After 30 min, 1 mL of the mixture was sampled at 3 times from each test solution, centrifuged at 18,400×g for 5 min, 0.3 mL of the supernatant was collected and admixed with 0.7 mL of acetonitrile to make a total volume of 1.0 mL. Then, the absorbance was measured at the maximum absorption wavelength corresponding to each of the dyes described above, and the concentration of dye was calculated from the calibration curve.

[3] = Superoxide scavenging ability (hypoxanthine/xanthine oxidase, ESR); type: biochemical
Description: In this experiment, superoxide generated by reacting hypoxanthine with xanthine oxidase was captured by 5,5-dimethyl-4-phenyl-1-pyrroline N-oxide (hereinafter referred to as “4PDMPO”) as a spin trapping agent, and SOD-like activity by the test compound was measured by ESR.
Specifically, A 50 μl of aqueous solution of hypoxanthine (commercialized by Fuji Film Wako Pure Chemical Industries, Ltd., Tokyo, Japan) prepared to 1 mM was added to a glass test tube. […] The ESR spectrum of the reaction mixture was measured 40 seconds after the addition of xanthine oxidase, and the radical scavenging ability of the test compound was shown as its relative percentage thereof, with the case where no dye compound was added as the radical intensity of 100%. Measurements were performed in triplicate for each of the concentrations of each test compound, and the IC50 was calculated using the average value thereof and shown in Table 6. […]
A reaction solution for measuring various radicals was placed in a flat quartz cell for ESR, and the ESR spectrum was measured by an ESR device (commercialized by JEOL Ltd., trade name “Free radical Controller JES-FR30”). […] The peak height of the ESR spectrum corresponding to each radical at this time was set as 100, and the relative intensity when the solution was added and reacted was obtained and expressed as the radical residual rate (%). […]

PC12-HS cells = test: Evaluation method A: neurocyte growth acceleration activity (Alamar blue); type: cell-based, rat; details: for Cell proliferation rate (%): negative control = 100%; for Action on PC12-HS growth acceleration (50 ng/ml): 3 days culture, class of cell proliferation rate vs negative control = 100%; for neurocyte growth acceleration activity (in words): 40, 200 and 1,000 nM, comment on Table 2; for cytotoxicity to PC12-HS cells: concentration range tested
Description: As a model of the nerve cell, the NGF (nerve growth factor) highly sensitive strain of PC12 cell derived from the rat adrenal pheochromocytoma (hereinafter referred to as “PC12-HS cell”; JCRB cell bank, National Research and Development Institute of Health and Nutrition), which has been widely used as a suitable model for research on human neurodegenerative disease, was used. As the test compound, […] of trimethine cyanine dye compounds; NK-5 (Chemical formula 2), NK-36 (Chemical formula 3), NK-44 (Chemical formula 5) and dye compounds represented by Chemical formulae 12 to 18, and NK-6 (Chemical formula 7), which is a monomethine cyanine dye, were selected. In addition, two kinds of ethylene cross-linked dyes (Chemical formulae 19 and 20), 15 kinds of monomethine cyanine dyes (Chemical formulae 21 to 35), and seven kinds of trimethine cyanine dyes (Chemical formulae 36 to 42), which were expected to have a good neurocyte growth acceleration activity and/or neurite-outgrowth promoting activity in the screening disclosed in Patent literature 6, were also re-evaluated for comparison. The Chemical formulae 12 to 42 are shown below.
The cyanine dye compounds subjected to the test (purity 97% by mass or more, synthesized by Hayashibara Co., Ltd., Okayama, Japan) were individually dissolved in DMSO (product number “D8418”, commercialized by SIGMA Corporation) at a concentration of 5 mg/ml, and the solutions were then filtered through DMSO-resistant membrane (“Millex-LGS LLG025SS”, commercialized by Millipore Corporation) and stored at 25° C. in a dark condition. At the time of use, they were further diluted with Dulbecco's Medium (hereinafter, abbreviated as “D-MEM medium”, commercialized by Nissui Pharmaceutical Co., Ltd.) supplemented by 10% by volume of fetal bovine serum (FBS), and subjected to the test.
PC12-HS cells were subjected to tests after frozen stock cultured cells were thawed and cultured with a D-MEM medium supplemented with 10% by volume of FBS (Hereinafter, when the term “culture” is simply used, it means that the cells are statically cultured in an incubator controlled at 37° C. under 5% by volume of CO2 conditions). Cells used in the test were collected using 0.25% by weight of trypsin solution, then diluted with a D-MEM medium supplemented with 10% by volume of FBS (hereinafter referred to as “culture medium”), seeded into collagen-coated 96-well plates (commercialized by Falcon, Tokyo, Japan, “Microtest Plate, Cell Culture, Flat Bottom”) to obtain 5×10^3 cells/100 μl/well, and cultured for 24 hours (hereinafter referred to as “pre-culture”). Then, the above test samples were diluted with a culture medium, and 100 μl of diluted solution of the test compounds were added to each well so that the final concentration of the test compounds in the wells became 50 ng/ml, and the cells were cultured for another three days. On day 3, the cultures supernatant was removed from each well, 200 μl of culture medium containing 10% by volume of Alamar blue reagents (commercialized by Trek Diagnostic Systems Inc., Ohio, USA) were added to each well, and the cells were cultured for 6 hours. After culturing for 6 hours, the cells were measured for fluorescent intensity at a wavelength of 544-590 nm by “FlexStation 3”, a product name of a fluorescent plate reader (commercialized by Japan Molecular Devices Corporation, Tokyo, Japan). […] Measurements were performed for each test compound in triplicate, and the mean values were shown.
The method was based on Experiment 1-1, except the concentrations of the test compounds were set to three doses of 40 nM, 200 nM and 1,000 nM for evaluation method A (neurocyte growth accelerating effect), and two doses of 200 nM and 1,000 nM for evaluation method B (neurite outgrowth promoting effect). […]

[4] = Hydroxyl radical scavenging ability (Fenton reaction, ESR); type: biochemical; details: 4PDMPO spin trap
Description: In this experiment, hydroxyl radicals generating from diethylenetriamine-N, N, N′, N″-pentaacetic acid (DTPA) by Fenton reaction were trapped with 4PDMPO and measured by ESRs.
Specifically, each of the dye compounds dissolved in DMSO was diluted with purified water to obtain a test compound solution. To a glass test tube, 50 μl of 1 mM hydrogen peroxide solution and 50 μl of 356 mM 4PDMPO were added, followed by 50 μl of the test compound solution. Then, 50 μl of an aqueous solution containing 1 mM FeSO4 and 1 mM DTPA (commercialized by Fuji Film Wako Pure Chemical Industries, Ltd.) was added thereto, mixed with a vortex mixer for 10 seconds, and then reacted for exactly 40 seconds, and the reaction solution was used for ESR measurement. […]
as §1

[5] = DPPH radical scavenging ability (absorbance method); type: biochemical
Description: 2,2-Diphenyl-1-picrylhydrazyl (hereinafter referred to as “DPPH”) is a radical with an unpaired electron and has the oxidizing ability of other substances. In addition, because it is stable and easy to handle, it is widely used as an artificial radical-like substance for measuring the antioxidant ability of antioxidants. When DPPH reacts with a substance having antioxidant ability, it loses its own oxidizing ability and its color changes from deep purple to […].
DPPH (commercialized by Tokyo Kasei Kogyo Co., Ltd., Tokyo, Japan) was dissolved in ethanol to prepare a 167 μM DPPH ethanol solution, and 90 μl of the solution was added to each well of the 96-well microplate. A 60 μl each of the test compound serially diluted with ethanol was added to the DPPH ethanol solution, and the mixture was reacted at room temperature for 2 hours, and then the absorbance at 490 nm was measured. […] From those value, the 50% inhibitory concentration of the DPPH radical (Hereinafter, it is referred to as “IC50”) was calculated.

CCN1C=CC(=Cc2cc[n+](CC)c3ccccc23)c2ccccc21.[I-] [NK-6]
IC50 [1]: 43 µM | Solubility Dictilled water ([2]; distilled water, room temperature, 30 min): 93 mg/L | Solubility Ethanol ([2]; ethanol): 645 mg/L | superoxide radical scavenging ability relative to NK-4 (comparison of IC50 values) [3]: more than twice that of NK-4 | IC50 ([3]; ESR, 4PDMPO spin trap, read-out: IC50 superoxide radical): 69 µM | Cell proliferation rate (%) (PC12-HS cells; 1.000 nM): 141.9% | Cell proliferation rate (%) (PC12-HS cells; 40 nM): 105.0% | Action on PC12-HS growth acceleration (50 ng/ml) (PC12-HS cells): ◯ (the relative value of 130% to 169% was judged to be equivalent to NK-4 (“circle”)) | Cell proliferation rate (%) (PC12-HS cells; 200 nM): 117.0% | neurocyte growth acceleration activity (in words) (PC12-HS cells): slightly weaker than that of NK-4 | cytotoxicity to PC12-HS cells (PC12-HS cells): do not show cytotoxicity | IC50 [4]: 62 µM | relative DPPH radical scavenging activity based on the IC50 value, relative to NK-4 [5]: about 2 times | IC50 ([5]; ethanol, room temperature, 2 hours, absorbance at 490 nm): 380 µM

CCN1C=CC(=CC=Cc2cc[n+](CC)c3ccccc23)c2ccccc21.[Br-] [NK-36]
Cell proliferation rate (%) (PC12-HS cells; 1.000 nM): 137.2% | Cell proliferation rate (%) (PC12-HS cells; 40 nM): 123.0% | Action on PC12-HS growth acceleration (50 ng/ml) (PC12-HS cells): ◯ (the relative value of 130% to 169% was judged to be equivalent to NK-4 (“circle”)) | Cell proliferation rate (%) (PC12-HS cells; 200 nM): 115.5% | neurocyte growth acceleration activity (in words) (PC12-HS cells): slightly weaker than that of NK-4 | cytotoxicity to PC12-HS cells (PC12-HS cells): do not show cytotoxicity

CCCCN1C=CC(=CC=Cc2cc[n+](CCCC)c3ccccc23)c2ccccc21.[I-] [NK-44]
Cell proliferation rate (%) (PC12-HS cells; 1.000 nM): 78.5% | cell proliferation relative to the negative control (PC12-HS cells; 40 nM): about 1.9 times | Cell proliferation rate (%) (PC12-HS cells; 40 nM): 193.4% | Action on PC12-HS growth acceleration (50 ng/ml) (PC12-HS cells): ⊚ (170% or higher was judged to be significantly stronger than NK-4 (“double circle”)) | Cell proliferation rate (%) (PC12-HS cells; 200 nM): 154.3% | neurocyte growth acceleration activity (in words) (PC12-HS cells): strongest activity | cytotoxicity to PC12-HS cells (PC12-HS cells): do not show cytotoxicity
